Measured values from patent publication US20010014682A1, “Fibrinogen receptor antagonists” (SmithKline Beecham Corporation, priority 1997, published 2001).

Target: T1, fibrinogen receptor (GPIIb-IIIa) (Homo sapiens, UniProt P05106+P08514)
T1 construct: The lectin-retained GPIIb-IIIa was eluted with buffer A containing 10% dextrose; tissue Red Cross; host or cells: human platelets
Assay: Competitive binding to GPIIb-IIIa using [3H]-SK&F-107260 as RGD-type ligand
Details: read-out: Ki for inhibition of [3H]-SK&F 107260 binding

T1 sequence (P08514 32-887 limits assumed): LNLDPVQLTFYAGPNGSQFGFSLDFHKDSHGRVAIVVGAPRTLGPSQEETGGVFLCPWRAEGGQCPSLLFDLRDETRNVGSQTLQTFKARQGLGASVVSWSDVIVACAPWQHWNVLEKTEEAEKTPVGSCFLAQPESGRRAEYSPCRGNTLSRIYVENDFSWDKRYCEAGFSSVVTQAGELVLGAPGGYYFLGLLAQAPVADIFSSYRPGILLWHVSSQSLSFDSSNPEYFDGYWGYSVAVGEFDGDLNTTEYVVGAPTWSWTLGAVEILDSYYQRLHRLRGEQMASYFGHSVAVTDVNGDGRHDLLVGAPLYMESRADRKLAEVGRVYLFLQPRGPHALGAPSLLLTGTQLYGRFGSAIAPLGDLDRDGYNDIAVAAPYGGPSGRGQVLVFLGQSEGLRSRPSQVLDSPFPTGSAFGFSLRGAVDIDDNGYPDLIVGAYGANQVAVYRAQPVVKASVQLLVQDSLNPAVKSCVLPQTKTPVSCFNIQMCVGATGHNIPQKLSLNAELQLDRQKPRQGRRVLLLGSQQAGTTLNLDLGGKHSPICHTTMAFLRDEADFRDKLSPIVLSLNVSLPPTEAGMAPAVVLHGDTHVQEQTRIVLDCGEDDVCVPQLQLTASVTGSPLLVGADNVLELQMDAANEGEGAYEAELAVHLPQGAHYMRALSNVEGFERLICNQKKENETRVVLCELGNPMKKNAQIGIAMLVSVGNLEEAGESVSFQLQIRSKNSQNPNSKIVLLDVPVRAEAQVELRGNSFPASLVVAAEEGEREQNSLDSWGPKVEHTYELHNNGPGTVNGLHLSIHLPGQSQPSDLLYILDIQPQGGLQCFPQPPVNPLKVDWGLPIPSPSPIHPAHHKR
T1 sequence (P08514 891-1039 limits assumed): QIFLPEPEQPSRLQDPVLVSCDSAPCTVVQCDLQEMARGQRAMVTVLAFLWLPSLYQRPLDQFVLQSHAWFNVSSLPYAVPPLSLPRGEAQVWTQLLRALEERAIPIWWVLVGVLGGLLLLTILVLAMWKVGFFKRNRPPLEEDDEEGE
T1 sequence (P05106 27-788): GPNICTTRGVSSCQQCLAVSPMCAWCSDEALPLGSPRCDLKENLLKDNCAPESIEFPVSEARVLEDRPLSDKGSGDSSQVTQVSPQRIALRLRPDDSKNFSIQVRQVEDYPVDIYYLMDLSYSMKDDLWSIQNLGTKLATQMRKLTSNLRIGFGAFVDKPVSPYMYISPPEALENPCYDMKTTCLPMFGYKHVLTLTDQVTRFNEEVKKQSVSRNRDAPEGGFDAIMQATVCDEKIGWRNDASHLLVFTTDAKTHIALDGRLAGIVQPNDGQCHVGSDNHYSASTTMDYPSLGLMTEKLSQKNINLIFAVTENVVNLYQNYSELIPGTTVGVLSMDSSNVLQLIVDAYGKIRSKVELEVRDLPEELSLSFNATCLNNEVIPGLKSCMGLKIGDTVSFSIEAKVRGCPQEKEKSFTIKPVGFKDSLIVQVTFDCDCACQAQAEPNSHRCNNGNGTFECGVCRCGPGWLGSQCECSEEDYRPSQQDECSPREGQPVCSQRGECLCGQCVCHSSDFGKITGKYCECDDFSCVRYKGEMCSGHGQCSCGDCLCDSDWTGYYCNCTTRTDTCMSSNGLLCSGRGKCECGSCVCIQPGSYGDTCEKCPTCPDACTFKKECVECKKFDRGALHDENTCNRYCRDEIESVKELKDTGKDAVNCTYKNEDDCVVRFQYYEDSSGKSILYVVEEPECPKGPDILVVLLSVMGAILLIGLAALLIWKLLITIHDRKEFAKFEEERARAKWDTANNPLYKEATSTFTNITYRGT

Ki: ~3.5 nM
Compound: O=C(Nc1ccc(N2CCNCC2)cc1)C1CCN(C(C(=O)O)c2ccccc2)CC1 (stereo not shown) [Example 1, 4-[(4-(1-piperizinyl)phenyl)aminocarbonyl]-1-piperidine-1-phenylacetic Acid]
